The supplement of paper PMC10307832

Tests used:
Assay in all cases: relative viability (nuclei count vs DMSO), 5 days (fraction); higher = more cells survive
NCI-H647 = test system: NCI-H647
Summary of the method: (§1)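 Dosing by pin tool came one day after lung cancer cell lines were seeded in 1536-well plates, using either one drug or a fixed anchor-drug dose plus five library-drug doses (not always all listed) in √10 steps. After 5 days, nuclei were counted on 4× images. Relative viability is treated-well nuclei count divided by vehicle-well nuclei count, and values are medians of duplicate plates.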

NCI-H2347 = test system: NCI-H2347
Summary of the method: as §1

HARA = test system: HARA
Summary of the method: as §1

NCI-H2228 = test system: NCI-H2228
Summary of the method: as §1

NCI-H322M = test system: NCI-H322M
Summary of the method: as §1

NCI-H358 = test system: NCI-H358
Summary of the method: as §1

UMC-11 = test system: UMC-11
Summary of the method: as §1

NCI-H838 = test system: NCI-H838
Summary of the method: as §1

NCI-H1355 = test system: NCI-H1355
Summary of the method: as §1

SK-MES-1 = test system: SK-MES-1
Summary of the method: as §1

HOP-62 = test system: HOP-62
Summary of the method: as §1

NCI-H2170 = test system: NCI-H2170
Summary of the method: as §1

NCI-H1993 = test system: NCI-H1993
Summary of the method: as §1

EKVX = test system: EKVX
Summary of the method: as §1

NCI-H1755 = test system: NCI-H1755
Summary of the method: as §1

NCI-H1395 = test system: NCI-H1395
Summary of the method: as §1

NCI-H2342 = test system: NCI-H2342
Summary of the method: as §1

NCI-H1793 = test system: NCI-H1793
Summary of the method: as §1

PC-14 = test system: PC-14
Summary of the method: as §1

COR-L23 = test system: COR-L23
Summary of the method: as §1

NCI-H1734 = test system: NCI-H1734
Summary of the method: as §1

NCI-H522 = test system: NCI-H522
Summary of the method: as §1

NCI-H2009 = test system: NCI-H2009
Summary of the method: as §1

COR-L 105 = test system: COR-L 105
Summary of the method: as §1

C[C@@H]1CN(CC(=O)Nc2ccc3c(c2)Cc2cccc(-c4cc(=O)cc(N5CCOCC5)o4)c2S3)C[C@H](C)O1 + CC(=O)c1c(C)c2cnc(Nc3ccc(N4CCNCC4)cn3)nc2n(C2CCCC2)c1=O [Palbociclib] (partner 0.5 µM)
relative viability (NCI-H647; first compound 0.04 µM): 0.376 | relative viability (NCI-H647; first compound 0.1265 µM): 0.336 | relative viability (NCI-H647; first compound 0.4 µM): 0.444 | relative viability (NCI-H647; first compound 4 µM): 0.273 | relative viability (NCI-H2347; first compound 0.04 µM): 0.377 | relative viability (NCI-H2347; first compound 0.1265 µM): 0.493 | relative viability (NCI-H2347; first compound 0.4 µM): 0.459 | relative viability (NCI-H2347; first compound 4 µM): 0.404 | relative viability (HARA; first compound 0.04 µM): 0.234 | relative viability (HARA; first compound 0.1265 µM): 0.186 | relative viability (HARA; first compound 0.4 µM): 0.272 | relative viability (HARA; first compound 4 µM): 0.226 | relative viability (NCI-H2228; first compound 0.04 µM): 0.993 | relative viability (NCI-H2228; first compound 0.1265 µM): 0.743 | relative viability (NCI-H2228; first compound 0.4 µM): 0.916 | relative viability (NCI-H2228; first compound 4 µM): 0.605 | relative viability (NCI-H322M; first compound 0.04 µM): 0.421 | relative viability (NCI-H322M; first compound 0.1265 µM): 0.475 | relative viability (NCI-H322M; first compound 0.4 µM): 0.506 | relative viability (NCI-H322M; first compound 4 µM): 0.522 | relative viability (NCI-H358; first compound 0.04 µM): 0.123 | relative viability (NCI-H358; first compound 0.1265 µM): 0.132 | relative viability (NCI-H358; first compound 0.4 µM): 0.12 | relative viability (NCI-H358; first compound 4 µM): 0.127 | relative viability (UMC-11; first compound 0.04 µM): 0.33 | relative viability (UMC-11; first compound 0.1265 µM): 0.332 | relative viability (UMC-11; first compound 0.4 µM): 0.321 | relative viability (UMC-11; first compound 4 µM): 0.338 | relative viability (NCI-H838; first compound 0.04 µM): 0.233 | relative viability (NCI-H838; first compound 0.1265 µM): 0.204 | relative viability (NCI-H838; first compound 0.4 µM): 0.207 | relative viability (NCI-H838; first compound 4 µM): 0.179 | relative viability (NCI-H1355; first compound 0.04 µM): 0.397 | relative viability (NCI-H1355; first compound 0.1265 µM): 0.4 | relative viability (NCI-H1355; first compound 0.4 µM): 0.404 | relative viability (NCI-H1355; first compound 4 µM): 0.385 | relative viability (SK-MES-1; first compound 0.04 µM): 0.35 | relative viability (SK-MES-1; first compound 0.1265 µM): 0.323 | relative viability (SK-MES-1; first compound 0.4 µM): 0.309 | relative viability (SK-MES-1; first compound 4 µM): 0.302 | relative viability (HOP-62; first compound 0.04 µM): 0.398 | relative viability (HOP-62; first compound 0.1265 µM): 0.43 | relative viability (HOP-62; first compound 0.4 µM): 0.412 | relative viability (HOP-62; first compound 4 µM): 0.405 | relative viability (NCI-H2170; first compound 0.04 µM): 0.399 | relative viability (NCI-H2170; first compound 0.1265 µM): 0.436 | relative viability (NCI-H2170; first compound 0.4 µM): 0.416 | relative viability (NCI-H2170; first compound 4 µM): 0.36 | relative viability (NCI-H1993; first compound 0.04 µM): 0.645 | relative viability (NCI-H1993; first compound 0.1265 µM): 0.729 | relative viability (NCI-H1993; first compound 0.4 µM): 0.438 | relative viability (NCI-H1993; first compound 4 µM): 0.662 | relative viability (EKVX; first compound 0.04 µM): 0.342 | relative viability (EKVX; first compound 0.1265 µM): 0.396 | relative viability (EKVX; first compound 0.4 µM): 0.308 | relative viability (EKVX; first compound 4 µM): 0.288 | relative viability (NCI-H1755; first compound 0.04 µM): 0.475 | relative viability (NCI-H1755; first compound 0.1265 µM): 0.449 | relative viability (NCI-H1755; first compound 0.4 µM): 0.432 | relative viability (NCI-H1755; first compound 4 µM): 0.399 | relative viability (NCI-H1395; first compound 0.1265 µM): 0.626 | relative viability (NCI-H1395; first compound 0.4 µM): 0.575 | relative viability (NCI-H1395; first compound 4 µM): 0.595 | relative viability (NCI-H2342; first compound 0.04 µM): 0.525 | relative viability (NCI-H2342; first compound 0.1265 µM): 0.556 | relative viability (NCI-H2342; first compound 0.4 µM): 0.496 | relative viability (NCI-H2342; first compound 4 µM): 0.455 | relative viability (NCI-H1793; first compound 0.04 µM): 0.297 | relative viability (NCI-H1793; first compound 0.1265 µM): 0.323 | relative viability (NCI-H1793; first compound 0.4 µM): 0.296 | relative viability (NCI-H1793; first compound 4 µM): 0.2 | relative viability (PC-14; first compound 0.04 µM): 0.529 | relative viability (PC-14; first compound 0.1265 µM): 0.506 | relative viability (PC-14; first compound 0.4 µM): 0.568 | relative viability (PC-14; first compound 4 µM): 0.423 | relative viability (COR-L23; first compound 0.04 µM): 0.294 | relative viability (COR-L23; first compound 0.1265 µM): 0.281 | relative viability (COR-L23; first compound 0.4 µM): 0.379 | relative viability (COR-L23; first compound 4 µM): 0.24 | relative viability (NCI-H1734; first compound 0.04 µM): 0.386 | relative viability (NCI-H1734; first compound 0.1265 µM): 0.354 | relative viability (NCI-H1734; first compound 0.4 µM): 0.308 | relative viability (NCI-H1734; first compound 4 µM): 0.433 | relative viability (NCI-H522; first compound 0.04 µM): 0.934 | relative viability (NCI-H522; first compound 0.1265 µM): 0.839 | relative viability (NCI-H522; first compound 0.4 µM): 1.06 | relative viability (NCI-H522; first compound 4 µM): 0.972 | relative viability (NCI-H2009; first compound 0.04 µM): 0.216 | relative viability (NCI-H2009; first compound 0.1265 µM): 0.214 | relative viability (NCI-H2009; first compound 0.4 µM): 0.206 | relative viability (NCI-H2009; first compound 4 µM): 0.206 | relative viability (COR-L 105; first compound 0.04 µM): 0.391 | relative viability (COR-L 105; first compound 0.1265 µM): 0.424 | relative viability (COR-L 105; first compound 0.4 µM): 0.397 | relative viability (COR-L 105; first compound 4 µM): 0.328
